# Experiments:
# normal patients = details: cited from earlier work
# [1] = tested on: cynomolgus macaque model of glaucoma; assay: Retinal nerve fiber layer thickness by OCT in cynomolgus macaque model of glaucoma; format: in vivo
# Experimental: (§1) Three weeks before the first laser trabeculoplasty, IOP was measured via a tomometer (SPHPR-320-61), once per week for three weeks. The first laser trabeculoplasty was performed in one eye for each macaque. Two weeks later, laser trabeculoplasty was repeated in the same eye (Week 0).
# (§2) One week after the second laser trabeculoplasty (Week 1), IOP was measured and retinal nerve fiber layer (RNFL) thickness was measured via optical coherence tomography (OCT; RS3000 Advance, Nidek Co. Ltd., Gamagoori, Japan) (SPHPR- 320-58). The day after group assignment, the eyes were instilled with either vehicle, KR-67607 or brimonidine twice a day. On Day 1, the effect of treatment on IOP over time was measured before treatment and 1, 2, 4, and 8 hrs. after instillation. At the same time, blood samples were obtained. From the effects of dosing observed on Day 1, it was determined that 2 hrs. was a reasonable time time-to-test following instillation for subsequent observations.
# (§3) Intraocular pressures were obtained at Weeks 2, 3, 4, 5, 7 and 9. Optical coherence tomography and color fundus photography (CFP) were performed at Weeks 1, 3, 5, 7, and 9 (SPHPR-320-56).
# [2] = tested on: cynomolgus macaque model of glaucoma; assay: Funduscopy in cynomolgus macaque model of glaucoma; format: in vivo
# Experimental: as §1, §2, §3
# [3] = tested on: cynomolgus macaque model of glaucoma; assay: Intraocular pressure in cynomolgus macaque model of glaucoma (laser trabeculoplasty); format: in vivo
# Experimental: as §1, §2, §3
# Following measurements at Week 9, G3 macaques was randomized into two groups based on IOP, and the effect of KR-67607 (1.5 mg/mL, 3.0 mg/mL) on IOP was evaluated.
# [4] = cited from earlier work
molecule,measurement,setting,value
CC1(C)[C@@H](OC(=O)CCC(=O)O)CC[C@]2(C)[C@H]3C(=O)C=C4[C@@H]5C[C@@](C)(C(=O)O)CC[C@]5(C)CC[C@@]4(C)[C@]3(C)CC[C@@H]12 [carbenoxolone],reduce intraocular pressure to levels as low as,normal patients,20%
Brimonidine tartrate [reference compound],number of eyes with RNFL thickness greater than 50% compared to baseline,"[1]; Week 9, 6 eyes per group",1
same,RNFL thinning in glaucomatous eyes,"[1]; repeated treatment, compared to vehicle-treated (G1)",appeared to inhibit
same,animals with a lesser degree of cupping compared to G1,[2]; Week 3 to Week 5,three animals
same,animals with a small or lesser degree of cupping,[2]; Week 9,one animal
same,"maximum decrease of IOP, contralateral normal eye","[3]; Day 1 dosing, 2 hours after dosing",4.1±0.9 mmHg
same,"maximum decrease of IOP, glaucomatous eye","[3]; Day 1 dosing, 2 hours after instillation",19.5±2.7 mmHg
same,effect on trough IOP value,"[3]; glaucomatous eyes, repeated treatment twice a day, brimonidine tartrate 0.1%, KR-67607 1.5 mg/mL",did not significantly affect
same,"maximum decrease of IOP, normal eye",[3]; over weeks,4.9±0.8 mmHg
2-hydroxypropyl-β-cyclodextrin [HP-β-CD],solubility in water,[4],more than 1 g/ml

# Reference: patent US20240108632A1, “PHARMACEUTICAL COMPOSITION FOR ADMINISTRATION AS OPHTHALMIC DROP TO PATIENT REQUIRING OPTIC NERVE PROTECTION” (PINOTBIO, INC., priority 2020, published 2024)
